Literature values as cited in US20050042178A1, “Microparticles containing the CGRP-antagonist 1-[N2-[3,5-dibrom-N-[[4-(3,4-dihydro-2(1H)-oxoquinazoline-3-yl)-1-piperidinyl]carbonyl]-D-tyrosyl]-L-lysyl]-4-(4-pyridinyl)-piperazine, process for preparing and the use thereof as inhalation powder” (Boehringer Ingelheim International GmbH, priority 2003, published 2005).

Conditions: conventional formulations

oral bioavailability: very limited
SMILES: NCCCC[C@H](NC(=O)[C@@H](Cc1cc(Br)c(O)c(Br)c1)NC(=O)N1CCC(N2Cc3ccccc3NC2=O)CC1)C(=O)N1CCN(c2ccncc2)CC1 [A, 1-[N^2-[3,5-dibromo-N-[[4-(3,4-dihydro-2(1H)-oxoquinazolin-3-yl)-1-piperidinyl]carbonyl]-D-tyrosyl]-L-lysyl]-4-(4-pyridinyl)-piperazine]
